Test results published in paper PMC9804387, “Substrate Peptidomimetic Inhibitors of P. falciparum Plasmepsin X with Potent Antimalarial Activity” (Chemmedchem, 2022).
Several values for one entry are separate records, joined by “and”; a condition that tells them apart may be missing. Identical values can stand only once. Counter-ions that a name gives are not always drawn. Like-named read-outs stand apart in the source and are kept apart here.

How the values were obtained:
[1] = biological target: T1, recombinant Pf PMX (Plasmodium falciparum, UniProt Q8IAS0); experiment: PMX biochemical FRET assay (Rh2N fluorogenic substrate cleavage); settings: for IC50: 37 °C
T1 construct: made in house
Experimental: FRET Protease Assays. FRET protease assays were performed as previously described.[19, 20, 27, 28] Briefly, ten‐point 1 : 3‐fold dilution series of the compounds were prepared in 384‐well black low volume assay plates (Greiner) using an Echo555 (Labcyte). 10 mM compound stocks were transferred into assay plates such that the starting concentration was 90 μM (Pv PMV assays), 11.25 μM (renin, cathepsin D and BACE‐1 assays) or 100 nM and 10 μM (Pf PMX and Pf PMIX assays). All wells were backfilled to 200 nL DMSO such that the DMSO concentration remained constant across the assay plates (1 % final). All compound potency assays were conducted in 20 μL total volume. For each assay, 10 μL of recombinant enzymes in respective assay buffers (Table S2) were dispensed into compound containing assay plates using a Multidrop‐Combi dispenser and allowed to incubate for 15 min. Recombinant Pf PMX, Pf PMIX and Pv PMV were expressed as previously described,[23, 27, 28] and recombinant human aspartyl proteases were purchased commercially. 10 μL of the fluorogenic peptide substrates incubated at 37 °C for the duration and conditions noted in Table S2. Samples were excited at 340 nm and fluorescence emission measured at 492 nm using an Envision fluorescence plate reader (Perkin‐Elmer). The 0 % inhibition control contained DMSO alone (1 % final) and the 100 % inhibition control was in the absence of enzyme. […]
(§1) Table S2 . P rotease FRET assay conditions.
(§2) PMX as sa y PMIX PM V assay Renin assay Cathepsin D assay BA CE-1 assay E nzy me prot e as e 0.25 nM pro te a se 6 nM prot e as e q ua nti ty 0.1 nM pro t ea se 1.5 nM pro t ea se 2.5 nM pro t ea se 3 nM (Pro te os #R-001) ( Athe ns Re sea rc h (Sigma #S4195) […]
(§3) 25mM so di um acetate, 100 mM 25 mM M E S, 25 m M 50 mM Tr is, 100 mM 100 mM so di u m 20 mM so dium Buffer acetate, 0.005% sodium chloride and Tris-HCl, 0.01% N aC l, 0. 1% Bri j-35, acetate 0.02% scetate, 0.05% […]
(§4) Sub str at e DABCYL- ( DA BC YL ) - DABCYL- DABCYL-(γ- Ab u) - E[E(EDANS)]KPIL […]

[2] = test system: P. falciparum (Pf) 3D7 parasites; experiment: P. falciparum LDH viability assay; type: cell-based; settings: for EC50: Plasmodium falciparum, 3D7, 72 h, LDH activity, 72 h at 37 °C, mean and SD of 3 independent experiments; for fold decrease in parasite activity compared to PMX inhibition: Pf 3D7 EC50 versus PMX IC50
Experimental: P. falciparum LDH Viability Assay. P. falciparum LDH viability assays were performed as previously described.[40] Briefly, a ten‐point 1 : 3‐fold dilution series of the compounds were pre‐dispensed in 384‐well assay plates (Grenier), and RPMI/AlbuMAX growth media inoculated with synchronized ring stage P. falciparum parasites. 10 mM compound stocks were transferred into the assay plates such that the starting concentration was 10 μM. Plates were incubated for 72 h and then frozen at −80 °C overnight. Lactate dehydrogenase (LDH) activity was quantified with APAD by measuring absorbance of NBT at 650 nm. Data were normalized to percent growth inhibition using the positive control of 0.1 % DMSO alone and the negative control of 100 nM chloroquine. Half‐maximal effective concentration (EC50) values were calculated by GraphPad Prism (8.0.2) software using a nonlinear regression four‐parameter fit analysis using a sigmoidal dose response (variable slope).

[3] = in vitro; type: cell-based; settings: human
Experimental: HepG2 Cytotoxicity Assay. HepG2 cytotoxicity assays were performed as previously described.[41] Briefly, human hepatocyte HepG2 cells were cultured in DMEM supplemented with 10 % FCS at 37 °C and 5 % CO2 in a humidified incubator. Cells were seeded at 1000 cells/well in 50 μL in 384‐well plates (Grenier) and compounds incubated in ten‐point 1 : 2‐fold dilution series for 48 h. Cytotoxicity was determined using Cell Titer‐Glo (Promega), normalized to DMSO alone controls (100 % viability) and control compound Bortezomib (0 % viability at 10 μM). CC50 values were calculated by GraphPad Prism (8.0.2) software using a nonlinear regression four‐parameter fit analysis with the sigmoidal dose response (variable slope).

[4] = biological target: T2, recombinant Pf PMIX (Plasmodium falciparum, UniProt Q8ILG2); experiment: PMIX FRET protease assay; type: biochemical, P. falciparum; settings: mean and SD of 4 replicate FRET experiments, 37 °C
T2 construct: made in house
Experimental: (§5) FRET Protease Assays. FRET protease assays were performed as previously described.[19, 20, 27, 28] Briefly, ten‐point 1 : 3‐fold dilution series of the compounds were prepared in 384‐well black low volume assay plates (Greiner) using an Echo555 (Labcyte). 10 mM compound stocks were transferred into assay plates such that the starting concentration was 90 μM (Pv PMV assays), 11.25 μM (renin, cathepsin D and BACE‐1 assays) or 100 nM and 10 μM (Pf PMX and Pf PMIX assays). All wells were backfilled to 200 nL DMSO such that the DMSO concentration remained constant across the assay plates (1 % final). All compound potency assays were conducted in 20 μL total volume. For each assay, 10 μL of recombinant enzymes in respective assay buffers (Table S2) were dispensed into compound containing assay plates using a Multidrop‐Combi dispenser and allowed to incubate for 15 min. Recombinant Pf PMX, Pf PMIX and Pv PMV were expressed as previously described,[23, 27, 28] and recombinant human aspartyl proteases were purchased commercially. 10 μL of the fluorogenic peptide substrates incubated at 37 °C for the duration and conditions noted in Table S2. Samples were excited at 340 nm and fluorescence emission measured at 492 nm using an Envision fluorescence plate reader (Perkin‐Elmer). The 0 % inhibition control contained DMSO alone (1 % final) and the 100 % inhibition control was in the absence of enzyme. Half‐maximal inhibitory concentration (IC50) values were calculated by GraphPad Prism (8.0.2) software using a nonlinear regression four‐parameter fit analysis using a sigmoidal dose response (variable slope).
as §1, §2, §3, §4

[5] = biological target: T3, recombinant Pv PMV (Plasmodium vivax, UniProt A5K302); experiment: PMV FRET protease assay; type: biochemical
T3 construct: made in house
Experimental: as §5, §1, §2, §3, §4

[6] = biological target: T4, cathepsin D (Homo sapiens, UniProt P07339); experiment: Cathepsin D FRET protease assay; type: biochemical; settings: mean and SD of 4 replicate FRET experiments, 37 °C; highest concentration tested 11 μM
T4 construct: purchased Athens Research 16-12-030104

[7] = biological target: T5, BACE‐1 (Homo sapiens, UniProt P56817); experiment: BACE-1 FRET protease assay; type: biochemical; settings: mean and SD of 4 replicate FRET experiments, 37 °C; highest concentration tested 11 μM
T5 construct: purchased Sigma S4195

[8] = biological target: T6, renin (Homo sapiens, UniProt P00797); experiment: Renin FRET protease assay; type: biochemical; settings: mean and SD of 4 replicate FRET experiments, 37 °C; highest concentration tested 11 μM
T6 construct: purchased Proteos R-001
T6 sequence (P00797 67-406): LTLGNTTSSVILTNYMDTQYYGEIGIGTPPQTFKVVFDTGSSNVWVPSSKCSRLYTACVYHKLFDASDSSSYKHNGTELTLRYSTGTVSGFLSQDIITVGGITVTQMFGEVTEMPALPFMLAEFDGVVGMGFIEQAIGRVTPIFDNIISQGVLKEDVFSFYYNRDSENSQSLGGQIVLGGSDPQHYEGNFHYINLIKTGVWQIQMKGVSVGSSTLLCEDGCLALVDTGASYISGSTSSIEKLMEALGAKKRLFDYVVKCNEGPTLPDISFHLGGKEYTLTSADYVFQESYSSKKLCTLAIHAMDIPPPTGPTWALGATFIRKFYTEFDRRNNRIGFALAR

[9] = recombinant PMX, fluorogenic substrate (Rh2N) cleavage, 4 h, mean and SD of 4 replicates (Tables 1, 2)

T1 sequence (Q8IAS0 222-573): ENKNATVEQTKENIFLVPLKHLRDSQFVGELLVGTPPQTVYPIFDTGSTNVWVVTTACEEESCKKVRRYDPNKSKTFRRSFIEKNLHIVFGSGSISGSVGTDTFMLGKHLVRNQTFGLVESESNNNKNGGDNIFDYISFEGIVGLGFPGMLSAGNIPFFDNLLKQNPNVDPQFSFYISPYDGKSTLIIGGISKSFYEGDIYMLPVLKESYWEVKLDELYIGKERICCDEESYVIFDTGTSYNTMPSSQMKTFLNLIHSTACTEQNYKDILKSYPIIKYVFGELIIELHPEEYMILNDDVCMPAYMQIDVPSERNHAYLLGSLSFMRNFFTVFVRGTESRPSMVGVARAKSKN
T3 sequence (A5K302 35-536): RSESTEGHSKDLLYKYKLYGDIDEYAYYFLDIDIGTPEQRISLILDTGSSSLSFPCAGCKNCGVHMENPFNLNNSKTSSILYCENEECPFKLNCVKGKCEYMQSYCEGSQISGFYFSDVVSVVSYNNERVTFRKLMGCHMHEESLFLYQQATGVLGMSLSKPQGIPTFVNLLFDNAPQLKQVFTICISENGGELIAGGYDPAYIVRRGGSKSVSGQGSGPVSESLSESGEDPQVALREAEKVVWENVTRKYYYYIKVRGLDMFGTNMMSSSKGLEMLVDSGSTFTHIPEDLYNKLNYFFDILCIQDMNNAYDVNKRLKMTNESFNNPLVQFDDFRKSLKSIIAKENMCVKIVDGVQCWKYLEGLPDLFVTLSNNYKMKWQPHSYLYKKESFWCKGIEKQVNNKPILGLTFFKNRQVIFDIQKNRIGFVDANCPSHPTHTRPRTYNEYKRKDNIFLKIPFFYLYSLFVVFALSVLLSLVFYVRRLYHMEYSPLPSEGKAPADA
T2 sequence (Q8ILG2 whole entry): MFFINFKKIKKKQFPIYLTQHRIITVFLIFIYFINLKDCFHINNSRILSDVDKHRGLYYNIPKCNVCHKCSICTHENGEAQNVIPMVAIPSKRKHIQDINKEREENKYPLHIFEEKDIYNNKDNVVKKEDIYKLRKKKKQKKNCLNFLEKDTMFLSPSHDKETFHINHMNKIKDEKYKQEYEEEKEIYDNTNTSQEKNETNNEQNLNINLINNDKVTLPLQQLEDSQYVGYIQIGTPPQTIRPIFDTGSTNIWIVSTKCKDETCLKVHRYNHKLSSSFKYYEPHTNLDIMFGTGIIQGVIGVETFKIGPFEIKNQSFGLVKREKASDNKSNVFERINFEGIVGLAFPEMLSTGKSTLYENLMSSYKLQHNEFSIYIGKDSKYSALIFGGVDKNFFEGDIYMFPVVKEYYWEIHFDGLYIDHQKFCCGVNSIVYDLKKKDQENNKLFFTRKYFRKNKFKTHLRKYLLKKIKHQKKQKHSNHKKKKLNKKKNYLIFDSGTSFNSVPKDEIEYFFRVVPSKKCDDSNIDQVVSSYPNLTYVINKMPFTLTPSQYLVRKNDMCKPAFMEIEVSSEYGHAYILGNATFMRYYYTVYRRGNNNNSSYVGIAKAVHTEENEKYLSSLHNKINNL
T4 sequence (P07339 65-412): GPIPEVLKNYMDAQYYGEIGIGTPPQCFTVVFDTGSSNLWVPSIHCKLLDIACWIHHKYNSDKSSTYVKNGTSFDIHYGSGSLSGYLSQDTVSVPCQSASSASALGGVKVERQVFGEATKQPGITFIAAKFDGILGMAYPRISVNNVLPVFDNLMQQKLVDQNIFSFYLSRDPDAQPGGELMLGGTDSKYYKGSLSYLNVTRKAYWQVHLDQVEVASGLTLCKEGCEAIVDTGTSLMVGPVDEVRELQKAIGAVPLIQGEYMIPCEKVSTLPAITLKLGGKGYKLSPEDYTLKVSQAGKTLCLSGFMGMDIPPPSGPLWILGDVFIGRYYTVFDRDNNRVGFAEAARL
T5 sequence (P56817 46-460 limits assumed): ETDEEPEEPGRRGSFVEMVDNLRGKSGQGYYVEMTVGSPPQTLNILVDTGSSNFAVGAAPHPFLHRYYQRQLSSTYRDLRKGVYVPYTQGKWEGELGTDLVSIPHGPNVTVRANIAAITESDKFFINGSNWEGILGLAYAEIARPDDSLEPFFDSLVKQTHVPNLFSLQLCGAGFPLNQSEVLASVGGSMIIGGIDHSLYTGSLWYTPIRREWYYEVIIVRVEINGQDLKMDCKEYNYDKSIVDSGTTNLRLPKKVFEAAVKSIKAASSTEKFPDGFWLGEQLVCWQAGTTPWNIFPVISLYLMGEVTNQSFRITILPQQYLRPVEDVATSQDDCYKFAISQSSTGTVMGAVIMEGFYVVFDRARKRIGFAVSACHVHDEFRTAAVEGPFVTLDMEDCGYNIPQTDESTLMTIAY

Compound | IC50 [1, 9] | EC50 [2] | CC50 at 48 h [3] | fold decrease in parasite activity compared to PMX inhibition [2] | other results
CC(C)CC(NC(=O)C(CO)NC(=O)OCc1ccccc1)C(=O)NC(Cc1ccccc1)C(O)CNC(C)c1ccccc1 (stereo not shown) [Compd 24, Cbz‐Ser‐Leu‐Phe‐HEA‐Bn(CH3)⋅TFA] | < 1000 nM and 200 nM | 1600 nM | > 40000 nM |  | 
CC(C)[C@H](NC(=O)OCc1ccccc1)C(=O)N[C@@H](Cc1ccccc1)[C@H](O)CN[C@H](C)c1ccccc1 [Compd 34, Cbz‐Val‐Phe‐HEA‐Bn(CH3)] | 10 nM | 50 nM | 13000 nM |  | IC50 ([1]; Table 3, mean and SD of 4 replicate FRET experiments): 10 nM; IC50 [4]: 6900 nM; IC50 [5]: > 90000 nM; IC50 [6]: > 11000 nM; IC50 [7]: > 11000 nM; IC50 [8]: > 11000 nM
CC(C)C[C@H](NC(=O)[C@H](CO)NC(=O)OCc1ccccc1)[C@H](O)CN[C@H](C)c1ccccc1 [Compd 41, Cbz‐Ser‐Leu‐HEA‐Bn(CH3)⋅TFA] | 1800 nM | 3200 nM | > 40000 nM |  | 
CC(C)CC(NC(=O)C(Cc1ccccc1)NC(=O)C(CO)NC(=O)OCc1ccccc1)C(O)CNC(C)c1ccccc1 (stereo not shown) [Compd 23, Cbz‐Ser‐Phe‐Leu‐HEA‐Bn(CH3)⋅TFA] | > 1000 nM and 3600 nM | 6000 nM | 30000 nM |  | 
C[C@@H](NC[C@@H](O)[C@H](Cc1ccccc1)NC(=O)[C@@H](CO)NC(=O)OCc1ccccc1)c1ccccc1 [Compd 40, Cbz‐D‐Ser‐Phe‐HEA‐Bn(CH3)⋅TFA] | 330 nM | 570 nM | > 40000 nM |  | fold less active against PMX than the L‐configured Ser (38) counterpart ([1]; PMX IC50 compared with 38): 7 fold
CC(=O)N[C@@H](CO)C(=O)N[C@@H](Cc1ccccc1)[C@H](O)CN[C@H](C)c1ccccc1 [Compd 39, Ac‐Ser‐Phe‐HEA‐Bn(CH3)⋅TFA] | 3300 nM | 6200 nM | > 40000 nM |  | 
CC(=O)NC(CO)C(=O)NC(CO)C(=O)NC(Cc1ccccc1)C(O)CNC(C)c1ccccc1 (stereo not shown) [Compd 28, Ac‐Ser‐Ser‐Phe‐HEA‐Bn(CH3)⋅TFA] | 580 nM | > 11000 nM | > 40000 nM | approximately 10 fold | 
CC(NCC(O)C(Cc1ccccc1)NC(=O)C(Cc1ccccc1)NC(=O)C(CO)NC(=O)OCc1ccccc1)c1ccccc1 (stereo not shown) [Compd 22, Cbz‐Ser‐Phe‐Phe‐HEA‐Bn(CH3)⋅TFA] | < 1000 nM and 190 nM and 170 nM | 1400 nM | > 40000 nM |  | 
CC(C)CC(NC(=O)C(CO)NC(=O)OCc1ccccc1)C(=O)NC(CC(C)C)C(O)CNC(C)c1ccccc1 (stereo not shown) [Compd 25, Cbz‐Ser‐Leu‐Leu‐HEA‐Bn(CH3)⋅TFA] | > 1000 nM and 3500 nM | > 11000 nM | > 40000 nM |  | 
CC(=O)NC(CC(N)=O)C(=O)NC(CO)C(=O)NC(Cc1ccccc1)C(O)CNC(C)c1ccccc1 (stereo not shown) [Compd 27, Ac‐Asn‐Ser‐Phe‐HEA‐Bn(CH3)⋅TFA] | 580 nM | 6700 nM | > 40000 nM | approximately 10 fold | 
C[C@@H](NC[C@@H](O)[C@H](Cc1ccccc1)NC(=O)[C@H](Cc1ccccc1)NC(=O)OCc1ccccc1)c1ccccc1 [Compd 36, Cbz‐Phe‐Phe‐HEA‐Bn(CH3)] | 70 nM | 650 nM | > 40000 nM | approximately 6 fold | 
CC(O)[C@H](NC(=O)OCc1ccccc1)C(=O)N[C@@H](Cc1ccccc1)[C@H](O)CN[C@H](C)c1ccccc1 (stereo partly shown) [Compd 42, Cbz‐Thr‐Phe‐HEA‐Bn(CH3)⋅TFA] | 160 nM | 260 nM | > 40000 nM | 2 fold | 
CC(C)C[C@H](NC(=O)OCc1ccccc1)C(=O)N[C@@H](Cc1ccccc1)[C@H](O)CN[C@H](C)c1ccccc1 [Compd 35, Cbz‐Leu‐Phe‐HEA‐Bn(CH3)] | 180 nM | 600 nM | 18000 nM | approximately 6 fold | 
CC(C)C[C@H](NC(=O)[C@@H](NC(=O)[C@H](CCON=C(N)N)NC(=O)OCc1ccccc1)C(C)C)[C@@H](O)CC(=O)NCCc1ccccc1 [WEHI-842, reference compound] |  |  |  |  | IC50 ([5]; Table S2, positive control activity in assay, 90 min, read-out: Positive control IC50 in PMV assay): 17 nM
